Assays:
[1] = target: T1, Neuropeptide Y receptor type 5 (Homo sapiens, UniProt Q15761); assay: Displacement of [125I]PYY from human NPY5 receptor in HEK293 cells; format: cell-based
T1 sequence (Q15761 whole entry): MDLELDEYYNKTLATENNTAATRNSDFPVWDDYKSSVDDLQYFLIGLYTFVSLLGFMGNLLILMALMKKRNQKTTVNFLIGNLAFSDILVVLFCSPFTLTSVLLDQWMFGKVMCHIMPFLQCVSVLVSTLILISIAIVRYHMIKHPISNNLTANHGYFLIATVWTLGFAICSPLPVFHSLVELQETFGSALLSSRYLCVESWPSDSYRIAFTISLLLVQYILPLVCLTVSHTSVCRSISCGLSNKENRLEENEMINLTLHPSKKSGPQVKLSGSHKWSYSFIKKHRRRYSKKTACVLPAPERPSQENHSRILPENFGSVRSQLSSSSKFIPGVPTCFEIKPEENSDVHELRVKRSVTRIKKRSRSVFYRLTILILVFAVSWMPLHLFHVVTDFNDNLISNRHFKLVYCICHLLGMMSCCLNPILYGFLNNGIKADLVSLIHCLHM

[2] = target: T2, Neuropeptide Y receptor type 2 (Homo sapiens, UniProt P49146); assay: Agonist activity at human NPY2 receptor in KAN-TS cells by [35S]GTP-gamma-S binding assay; format: functional, cell-based
T2 sequence (P49146 whole entry): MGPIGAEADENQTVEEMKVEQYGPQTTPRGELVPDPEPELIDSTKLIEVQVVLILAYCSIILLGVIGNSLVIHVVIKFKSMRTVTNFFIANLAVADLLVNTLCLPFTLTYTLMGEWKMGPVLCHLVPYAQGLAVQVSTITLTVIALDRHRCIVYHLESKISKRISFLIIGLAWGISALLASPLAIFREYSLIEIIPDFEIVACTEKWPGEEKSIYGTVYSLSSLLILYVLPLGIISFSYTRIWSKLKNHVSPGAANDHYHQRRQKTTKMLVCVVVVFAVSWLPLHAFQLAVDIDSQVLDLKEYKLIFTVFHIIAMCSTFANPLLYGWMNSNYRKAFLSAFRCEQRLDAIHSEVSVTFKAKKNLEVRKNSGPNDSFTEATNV

[3] = target: T2, Neuropeptide Y receptor type 2; assay: Displacement of [125I]PYY from human NPY2 receptor in KAN-TS cells by SPA assay; format: cell-based
[4] = test system: Mus musculus; assay: Reduction of food intake in C57BL/6 mouse at 10 mg/kg, sc after 1 to 24 hrs; format: functional; design: scale not given: the % may be the effect or the level left; conditions: route subcutaneous
[5] = target: T3, Neuropeptide Y receptor type 2 (Homo sapiens) (UniProt P49146); assay: Agonist activity at human NPY2 receptor in KAN-TS cells at 1 uM by [35S]GTP-gamma-S binding assay; format: functional, cell-based
T3 sequence (whole entry): T2 sequence (P49146 whole entry)

[6] = target: T4, Neuropeptide Y receptor type 1 (Homo sapiens, UniProt P25929); assay: Displacement of [125I]PYY from human NPY1 receptor in SK-N-MC cells; format: cell-based
T4 sequence (P25929 whole entry): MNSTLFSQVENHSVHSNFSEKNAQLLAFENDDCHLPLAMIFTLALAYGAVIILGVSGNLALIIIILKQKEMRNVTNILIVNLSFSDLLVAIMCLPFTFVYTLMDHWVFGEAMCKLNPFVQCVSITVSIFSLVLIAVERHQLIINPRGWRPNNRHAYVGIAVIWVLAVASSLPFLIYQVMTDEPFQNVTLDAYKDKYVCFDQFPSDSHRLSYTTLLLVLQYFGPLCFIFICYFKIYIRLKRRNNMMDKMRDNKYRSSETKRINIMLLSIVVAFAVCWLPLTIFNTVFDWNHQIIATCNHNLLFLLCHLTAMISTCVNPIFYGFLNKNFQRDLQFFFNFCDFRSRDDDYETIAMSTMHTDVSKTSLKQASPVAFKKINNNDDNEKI

Ki [1]	EC50 [2]	Ki [3]	E/Emax [5]	Ki [6]	Substance	Activity [4]
> 1000 nM	33 nM	8.2 nM	94%	> 1000 nM	Ac-CLRHYLNLLTRQRY-NH2	–
> 1000 nM	160 nM	200 nM	81%	> 1000 nM	Ac-LRHYLNLLTRQRYC-NH2	–

Substance	Ki [1]	EC50 [2]	Ki [3]	E/Emax [5]	Ki [6]	Activity [4]
Ac-LRHYLNLLTRQRY-NH2	> 1000 nM	6 nM	5 nM	100%	210 nM	6%
